{"source": "patent US20030170643A1", "about": "“Regulation of apoB treatment and drug screening for cardiovascular and metabolic disorders or syndromes” (priority 1999, published 2003)", "assay_type_in_all_cases": "cell-based", "key": {"[1]": {"test_system": "Rat McA hepatoma cells", "experiment": "Proteasome inhibition and apoB degradation in rat McA hepatoma cells", "experimental": "FIG. 8 illustrates that EPA stimulates apoB degradation even when proteasomes are inhibited. Panel A: Rat McA hepatoma cells were incubated at 37° C. for 4 hr in [^35S]methionine-containing medium supplemented with either BSA (C) or EPA/BSA complexes (EPA) in the absence (EPA) or presence (EPA+LAC) of the proteasome inhibitor, lactacystin. Samples of cell lysates and conditioned media were subjected to immunoprecipitation analysis with anti-apoB antiserum, followed by SDS-PAGE and fluorography. In three separate experiments, the effect of lactacystin on EPA-induced degradation averaged less than 20%. Panel B: Rat McA hepatoma cells were incubated at 37° C. for 4 hr in [^355]methionine-containing medium supplemented with either BSA (Control) or BSA and lactacystin (LAC). After immunoprecipitation/SDS-PAGE analysis of the cell lysate and media samples, the resulting fluorograms were analyzed by phosphorimager and the recovery of total (cell+medium) apoB100 was quantified. The results shown (mean total recovery relative to control, ±SE) are based on 8 independent determinations. * indicates P<0.001, LAC vs. control.\nTo determine whether the proteasome mediated Ω-3 fatty acid-induced apoB degradation, rat hepatoma cells were incubated at 37° C. for 4 hr in [^35S]methionine-containing medium supplemented with either BSA or EPA/BSA complexes in the absence or presence of the proteasome inhibitor, lactacystin ([…]; purchased from the laboratory of Dr. E. J. Corey, Harvard University). Samples of cell lysates and conditioned media were subjected to immunoprecipitation analysis with anti-apoB antiserum, followed by SDS-PAGE and fluorography. To determine whether Ω-3 fatty acids targeted apoB to lysosomal degradation, a similar experiment was performed substituting ammonium chloride (40 mM) for lactacystin."}, "[2]": {"test_system": "rat hepatoma cells", "experiment": "Pulse-chase recovery of [35S]-apoB100 (apoB100 degradation) in rat hepatoma cells", "conditions": "for effect on DHA-stimulated apoB100 degradation: rat hepatoma cells or primary hepatocytes, co-treatment with DHA/BSA", "experimental": "(§1) FIG. 13 illustrates that either an iron chelator (DFX) or lipid antioxidants block DHA-stimulated apoB degradation and reactive oxygen species (ROS) production. Rat hepatoma cells were plated in culture wells and pre-incubated in media containing either DHA or DHA with one of the indicated compounds. Radiolabeled methionine/cysteine was added to the culture media for 15 minutes, after which time, the culture media were replaced by fresh media identical in composition except that radiolabeled methionine/cysteine were replaced by unlabeled methionone/cysteine. The recovery of labeled apoB100 ([^35S]-apoB100) from the media and cell lysate was determined at the indicated time points (with time 0 being the point when the fresh media were applied to the cells) by immunoprecipitating apoB species with a rabbit polyclonal antibody to rat apoB, resuspending the immunoprecipitates, combining aliquots from cell lysate and media samples from each well, resolving the protein contents of the combined immunoprecipitates by SDS-polyacrylamide gel electrophoresis (SDS-PAGE), and exposing the resultant gels to X-ray film in order to visualize the labeled apoB bands. In panel A are shown representative signals for radiolabeled apoB100 in each of the treatment conditions. […] For each treatment, there were at least 2 wells/treatment for each time point and the entire experiment repeated. The signal intensities of the apoB100 bands were quantified by densitometry and the mean relative recoveries (the % of the 15 minute, or initial, value still remaining at 120 minutes) ±SEM are shown in panel B. Note that the visual impressions observable in panel A are confirmed by the quantitative analysis; i.e., there is a substantial increase in labeled apoB100 recovery with any of the co-treatments. In panel C, the ROS content of the cell lysates at the end of the experiment was measured by the standard TBARS assay (Stocks et al., 1974, Clin Sci Mol Med 47,215-222). Note that compared to control (BSA), DHA induced a large increase in TBARS, as expected because of its high content on unsaturated bonds.\nFIG. 14 illustrates that DHA, but not saturated MA, induces apoB100 degradation in rat hepatoma cells. An experiment similar to the one described in FIG. 13 was performed, with the following changes: A) The immunoprecipitates from cell lysate and media samples were not combined, but separately analyzed. B) In addition to the 15 and 120 minute time points, apoB recovery was determined at 30 minutes. C) In addition to DHA, the effects of the fatty acid myristic (MA) were also tested because it has no unsaturated bonds and should not give rise to ROS.\nFIG. 15 illustrates that AA stimulates apoB100 degradation and increases ROS. […] Note in the upper panel that the combined recovery (from two separate wells/time point) of radiolabeled apoB100 decreased from 15 to 120 minutes, indicating significant apoB100 degradation had occurred in the presence of AA. […] In addition to being a source of ROS, AA can also be converted by cyclooxygenase (COX) to bioactive prostaglandin compounds. We therefore repeated the experiment with AA but with co-treatment by the COX inhibitor aspirin.\nTo further explore the underlying mechanisms, rat hepatoma cells or primary hepatocytes were incubated with the Ω-3 fatty acid DHA complexed to BSA, while blocking candidate cellular mediators. […] There was, however, strong evidence against a role for calcium. Chelation of intracellular Ca^++ with BAPTA-AM, pharmacologic blockage of Ca^++ channels, depletion of the ER-calcium pool, and increasing Ca++ influx with an ionophore each had no effect. Because EGTA also chelates Fe^+++, and DHA is subject to Fe^+++-dependent peroxidation, the role of this lipid modification was examined. As shown in FIG. 13A and 13B, Desferroxamine (DFX), a chelator of Fe^+++, the antioxidant vitamin E (Vit E), and the synthetic antioxidant BHT, each inhibited DHA-stimulated apoB100 degradation by ˜60%."}, "[3]": {"test_system": "rat hepatoma cells", "experiment": "TBARS assay of ROS in cell lysates of rat hepatoma cells", "conditions": "fatty acid alone", "experimental": "as §1, with “bonds. […] FIG. 15 illustrates that AA stimulates apoB100 degradation and increases ROS. […] Note in the upper panel that the combined recovery (from two separate wells/time point) of radiolabeled apoB100 decreased from 15 to 120 minutes, indicating significant apoB100 degradation had occurred in the presence of AA. […] In addition to being a source of ROS, AA can also be converted by cyclooxygenase (COX) to bioactive prostaglandin compounds. We therefore repeated the experiment with AA but with co-treatment by the COX inhibitor aspirin.” for “bonds.”"}, "[4]": {"test_system": "rat primary hepatocytes", "experiment": "Secretion of newly synthesized ([35S]methionine-labeled) VLDL-apoproteins by rat primary hepatocytes incubated with fatty acid/BSA complexes", "conditions": "fatty acid/BSA complexes (0.8 mM FA), VLDL fraction", "experimental": "Cells were plated at a density of 2×10^6 cells/ml on 60-mm culture dishes (previously coated with poly-D-lysine) in modified M199 medium (M199, 1% fetal bovine serum [FBS], 1 mM nicotinamide, 0.1 nM insulin, 3 mg/ml choline, 1.1% L-glutamine, 1% BSA). After a four-hour attachment period, the medium was changed (modified M199 identical to the above except BSA was omitted and the concentration of FBS was raised to 10%). The next morning, cells were washed in serum-free medium three times, the experimental media added, and the cells incubated at 37° C. for 4-6 hours. The experimental medium consisted of serum-free RPMI containing the appropriate isotopes (see below) and fatty acids (FA) present at a final concentration of 0.8 mM complexed to BSA (FA:BSA molar ratio=5:1). The fatty acids used were oleic (OA), EPA, and DHA. Control medium was identical, except that BSA (0.16 mM) without fatty acids was present. For metabolic labeling of proteins, [^35S]methionine (70 uCi/ml) was included in the experimental media.\nFollowing the 4-6 hour incubation period, the cell monolayer was washed, then solubilized in 0.1 M NaOH, and the cell protein determined by the Lowry method (Lowry, O. H., Rosebrough, N. J., Farr, A. L., and Randall, R. J. (1951) J Biol Chem 193, 265-75). Each 60 mm dish contained approximately 1-1.5 mg of cell protein. The secreted apoproteins were isolated from the medium either by ultracentrifugation or immunoprecipitation. To isolate the d<1.006 (VLDL) and 1.006<d<1.063 (IDL and LDL) g/ml density classes by centrifugation, sequential 20 hour runs at 48,000 rpm in a 50 Ti Beckman rotor at 4° C. were performed. After the first run at d=1.006, the upper VLDL layer was harvested and the density of the infranatant adjusted to 1.066 g/ml with solid KBr. After being overlaid with a KBr solution of density 1.063, the adjusted infranatant was re-centrifuged as before to isolate the IDL and LDL fractions. In some experiments, the HDL fraction (1.063<d<1.21) was isolated by sequential density centrifugation. Lipoprotein fractions were then dialyzed against 0.9% NaCl containing 10 mM unlabeled methionine, 0.2 mM PMSF, and 2 mM EDTA. Dialyzed lipoproteins were delipidated using 9 volumes of 100% isopropanol. Apoproteins were then collected by centrifugation in a Sorval HB-4 rotor at 10,000 rpm and 4° C. for 20 min, and dissolved in buffer (0.01 M phosphate, pH 7,1 % SDS, 10% glycerol), in preparation for electrophoresis.\nTo immunoprecipitate apoB or apoE from unfractionated conditioned medium, monospecific rabbit antiserum to rat apoB or apoE was used. Briefly, an aliquot of the medium was mixed with an equal volume of diluted antiserum (1:100 in PBS and 1% BSA) and incubated overnight at 4° C. Staph A was added in the form of immunoprecipitin, and the resultant precipitate containing the immune complexes was washed extensively, the staph A cells removed, and the isolated apoprotein dissolved in gel sample buffer (0.0625M tris/Cl, pH 6.8, 20% glycerol, 2% SDS). Electrophoretic separation of apoVLDL, apoIDL/LDL, and immunoprecipitates was accomplished using 3.5% acrylamide-18% glycerol gels as described (Maguire, G. F., Lee, M., and Connelly, P. W. (1989) J Lipid Res 30, 757-61). An aliquot of each sample was taken for scintillation counting, so that total radioactivity applied to each lane could be determined. Also, protein size standards were included in each gel.\nAfter electrophoresis, the gels were stained, fixed, soaked in Enhance fluor solution, and dried following protocols supplied by the manufacturer. Dried gels were then exposed to X-ray film at −70° C. and signals on the resulting fluorograms were typically quantified by densitometry or phosphorimaging. Using the total radioactivity applied to each lane of the gel and the relative signal intensity of each band in that lane, the radioactivity associated with each apoprotein species was calculated. […]"}}, "data": [{"smiles": "CC(=O)N[C@@H](CSC(=O)[C@]1([C@@H](O)C(C)C)NC(=O)[C@H](C)[C@@H]1O)C(=O)O", "note": "[lactacystin]", "values": [{"measurement": "inhibition of EPA-induced apoB degradation", "setting": "[1]; FIG. 8 Panel A", "value": "little if any inhibition"}, {"measurement": "apoB100 recovery in the absence of Ω-3 fatty acids", "setting": "[1]; FIG. 8 Panel B, total (cell+medium), P<0.001 vs control", "value": "increased"}, {"measurement": "effect of lactacystin on EPA-induced apoB degradation", "setting": "[1]; average of three separate experiments, 4 hr", "value": "less than 20%"}]}, {"smiles": "O=C(O)CN(CCOCCOCCN(CC(=O)O)CC(=O)O)CC(=O)O", "note": "[EGTA]", "values": [{"measurement": "effect on DHA-stimulated apoB100 degradation", "setting": "[2]", "value": "blocked"}]}, {"smiles": "CCCCC/C=C\\C/C=C\\C/C=C\\C/C=C\\CCCC(=O)O", "note": "[AA, arachidonic acid]", "values": [{"measurement": "AA-induced apoB100 degradation with co-treatment by the COX inhibitor aspirin", "setting": "[2]; AA plus aspirin", "value": "still induced apoB100 degradation"}, {"measurement": "apoB100 degradation induced by the fatty acid", "setting": "[2]; rat hepatoma cells, 15 to 120 minutes chase", "value": "stimulates the degradation of apoB"}, {"measurement": "reactive oxygen species (ROS), TBARS assay, fatty acid compared to BSA", "setting": "[3]", "value": "increases"}]}, {"smiles": "Cc1cc(C(C)(C)C)c(O)c(C(C)(C)C)c1", "note": "[BHT, butylhydroxytoluene]", "values": [{"measurement": "inhibition of DHA-stimulated apoB100 degradation", "setting": "[2]; co-treatment with DHA, FIG. 13A and 13B", "value": "~60", "unit": "%"}]}, {"smiles": "CC/C=C\\C/C=C\\C/C=C\\C/C=C\\C/C=C\\CCCC(=O)O", "note": "[EPA, eicosapentaenoic acid]", "values": [{"measurement": "secretion of newly synthesized VLDL-ApoB48, percentage of secretion observed with BSA alone", "setting": "[4]", "value": "45 ± 3", "unit": "percentage"}, {"measurement": "secretion of newly synthesized VLDL-ApoB100, percentage of secretion observed with BSA alone", "setting": "[4]", "value": "25 ± 2", "unit": "percentage"}, {"measurement": "secretion of newly synthesized VLDL-ApoE, percentage of secretion observed with BSA alone", "setting": "[4]", "value": "45 ± 1", "unit": "percentage"}]}, {"smiles": "CCCCCCCCCCCCCC(=O)O", "note": "[MA, myristic acid]", "values": [{"measurement": "reactive oxygen species (ROS), TBARS assay, fatty acid compared to BSA", "setting": "[3]", "value": "does not increase"}]}, {"smiles": "CC(=O)Oc1ccccc1C(=O)O", "note": "[aspirin]", "values": [{"measurement": "effect on DHA-stimulated apoB100 degradation", "setting": "[2]", "value": "no effect"}]}, {"smiles": "O=C(O)CN(CC(=O)O)c1ccccc1OCCOc1ccccc1N(CC(=O)O)CC(=O)O", "note": "[BAPTA]", "values": [{"measurement": "effect on DHA-stimulated apoB100 degradation", "setting": "[2]", "value": "blocked"}]}, {"smiles": "CC(=O)OCOC(=O)CN(CC(=O)OCOC(C)=O)c1ccccc1OCCOc1ccccc1N(CC(=O)OCOC(C)=O)CC(=O)OCOC(C)=O", "note": "[BAPTA-AM]", "values": [{"measurement": "effect on DHA-stimulated apoB100 degradation", "setting": "[2]", "value": "no effect"}]}]}
